Results on 16 compounds are retold here after US7713994B2 (Wyeth LLC, priority 2005, dated 2010).

The target in one test is T1, cyclin D1/cdk 4 enzyme (Homo sapiens, UniProt P11802).
T1 construct: made in house; host or cells: Sf9 insect cells, recombinant baculovirus
The experiment in a line: CDK4 ELISA kinase assay (phospho-Rb ser 795 detection). The test is classed as biochemical. The following applies: In Vitro Enzyme Assays, 200 μM ATP, read-out: CDK4 IC50. The method in brief: (§1)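 Wells were coated overnight with GST-Rb C-terminal fragment, then blocked. Compound (10 ug/ml final) and cyclin/CDK enzyme from baculovirus-infected Sf9 cells with 200 μM ATP reacted 1 h at 30° C. Ser795 phosphorylation was detected by ELISA at 450 nm.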
For orientation: An ELISA detects its analyte on a solid surface through an enzyme-linked reagent.

Another test concerns the target T2, cyclin E/CDK2 enzyme (Homo sapiens, UniProt P24941).
T2 construct: made in house; host or cells: Sf9 insect cells, recombinant baculovirus
The experiment in a line: CDK2 ELISA kinase assay (phospho-Rb ser 795 detection). The test is classed as biochemical. The following applies: In Vitro Enzyme Assays, read-out: CDK2 IC50. The method in brief: as §1

The target in another test is T3, cyclin B/CDK1 enzyme (Homo sapiens, UniProt P06493).
T3 construct: purchased New England BioLabs; host or cells: Sf9 insect cells, recombinant baculovirus
T3 sequence (P06493 whole entry): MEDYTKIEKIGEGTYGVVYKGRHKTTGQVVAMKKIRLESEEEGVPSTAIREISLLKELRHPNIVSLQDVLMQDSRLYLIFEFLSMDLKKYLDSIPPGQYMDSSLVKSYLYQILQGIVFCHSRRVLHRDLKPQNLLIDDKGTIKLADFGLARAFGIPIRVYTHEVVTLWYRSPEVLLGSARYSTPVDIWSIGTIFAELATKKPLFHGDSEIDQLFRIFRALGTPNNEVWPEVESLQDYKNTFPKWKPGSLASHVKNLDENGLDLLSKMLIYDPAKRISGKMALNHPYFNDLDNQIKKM
T3 sequence (P14635 whole entry partner): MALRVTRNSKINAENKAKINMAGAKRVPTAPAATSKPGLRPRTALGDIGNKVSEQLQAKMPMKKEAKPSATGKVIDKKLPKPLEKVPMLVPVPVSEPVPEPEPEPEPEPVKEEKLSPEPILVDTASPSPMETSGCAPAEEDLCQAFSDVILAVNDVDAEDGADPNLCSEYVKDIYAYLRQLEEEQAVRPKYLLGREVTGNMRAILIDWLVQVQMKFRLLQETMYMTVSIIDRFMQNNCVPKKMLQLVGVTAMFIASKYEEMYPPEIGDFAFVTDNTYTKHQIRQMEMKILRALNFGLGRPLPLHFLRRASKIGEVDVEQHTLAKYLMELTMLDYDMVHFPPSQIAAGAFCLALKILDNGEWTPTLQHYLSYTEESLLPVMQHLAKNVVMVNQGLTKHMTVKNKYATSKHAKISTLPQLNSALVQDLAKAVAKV
The experiment in a line: CDK1 ELISA kinase assay (phospho-Rb ser 795 detection). The test is classed as biochemical. The following applies: In Vitro Enzyme Assays, read-out: CDK1 IC50. The method in brief: as §1

For another test, the system named is BT474. The experiment in a line: Cytotoxicity assay (SRB), BT474. The test is classed as cell-based. The following applies: Homo sapiens, BT-474, 144 h, BT474 cells, 6 days, SRB; read-out: In Vitro Cellular Activity IC50 BT474. The essentials:
(§2)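 BT474 (12000 cells/well) was treated for 6 days, whereas HCT-116 (4000), LoVo (6000) and MCF-7 (6000) were treated for 3 days, all in RPMI 1640 containing 5% FBS. Surviving-cell percentage came from SRB dye binding measured at 540 nm.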

The test system of the next test is HCT-116. The experiment in a line: Cytotoxicity assay (SRB), HCT-116. The test is classed as cell-based. The settings on record: Homo sapiens, HCT-116, 72 h, HCT116 cells, 3 days, SRB; read-out: In Vitro Cellular Activity IC50 HCT116. The essentials:
as §2

The test system of a further test is LoVo. As to the kind of experiment: Cytotoxicity assay (SRB), LoVo. The settings on record: Homo sapiens, LoVo, 72 h, LoVo cells, 3 days, SRB; read-out: In Vitro Cellular Activity IC50 LOVO. The format is cell-based. The method in brief:
as §2

For the next test, the system named is MCF-7. The experiment in a line: Cytotoxicity assay (SRB), MCF-7. The format is cell-based. The settings on record: Homo sapiens, MCF7, 72 h, MCF-7 cells, 3 days, SRB; read-out: In Vitro Cellular Activity IC50 MCF-7. The essentials:
as §2

What is called IC50 is the concentration that inhibits the measured activity by half.

T1 sequence (P11802 whole entry, species assumed): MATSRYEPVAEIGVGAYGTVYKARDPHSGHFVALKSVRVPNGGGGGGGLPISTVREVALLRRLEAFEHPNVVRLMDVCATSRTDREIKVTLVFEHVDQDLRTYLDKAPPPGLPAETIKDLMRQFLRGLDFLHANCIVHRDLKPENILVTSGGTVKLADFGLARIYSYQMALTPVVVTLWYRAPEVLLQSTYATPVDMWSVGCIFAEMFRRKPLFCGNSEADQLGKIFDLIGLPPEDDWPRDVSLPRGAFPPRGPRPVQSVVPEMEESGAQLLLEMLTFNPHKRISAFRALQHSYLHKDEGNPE
T1 sequence (P24385 whole entry partner, species assumed): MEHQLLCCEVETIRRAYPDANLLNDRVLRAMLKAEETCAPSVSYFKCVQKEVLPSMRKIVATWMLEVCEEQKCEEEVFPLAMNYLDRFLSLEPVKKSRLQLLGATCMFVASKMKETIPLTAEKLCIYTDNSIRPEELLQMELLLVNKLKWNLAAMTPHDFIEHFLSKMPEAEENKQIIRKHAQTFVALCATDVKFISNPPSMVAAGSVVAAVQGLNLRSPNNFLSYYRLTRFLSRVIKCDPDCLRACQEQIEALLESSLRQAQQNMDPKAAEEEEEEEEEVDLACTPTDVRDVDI

As to `O=C1NC(=O)c2ccc(-c3ccsc3)cc2/C1=C/Nc1ccc(N2CCN(CC3CC3)CC2)nc1` [Example 418, (4Z)-4-[({6-[4-(Cyclopropylmethyl)piperazin-1-yl]pyridin-3-yl}amino)methylene]-6-(3-thienyl)isoquinoline-1,3(2H,4H)-dione], the half-inhibitory concentration (IC50) on cyclin D1/cdk 4 enzyme is 0.02 µM; at cyclin E/CDK2 enzyme, greater than 50 µM; on cyclin B/CDK1 enzyme it was greater than 50 µM; with BT474 it was 2.7 µM; in the test on HCT-116, 1.4 µM; in the test with LoVo, 2.4 µM. The IC50 in the test with MCF-7 turned out to be 3.2 µM.

For `C=CCN1CCCC1c1ccc(N/C=C2\C(=O)NC(=O)c3ccc(I)cc32)cc1` (stereo not shown) [Example 419, 4-{[4-(1-Allyl-pyrrolidin-2-yl)-phenylamino]-methylene}-6-iodo-4H-isoquinoline-1,3-dione], the IC50 on cyclin D1/cdk 4 enzyme is 0.77 µM; at cyclin E/CDK2 enzyme it was 31 µM; on cyclin B/CDK1 enzyme, greater than 50 µM; in the test on BT474, 12.9 µM; in the test with HCT-116, 7 µM; in the test with LoVo it was 12 µM. The IC50 in the test with MCF-7 worked out at 7.6 µM.

Turning to `C=CCN1CCCC1c1ccc(N/C=C2\C(=O)NC(=O)c3ccc(-c4ccsc4)cc32)cc1` (stereo not shown) [Example 420, 4-{[4-(1-Allyl-pyrrolidin-2-yl)-phenylamino]-methylene}-6-thiophen-3-yl-4H-isoquinoline-1,3-dione], the half-maximal inhibitory concentration (IC50) at cyclin D1/cdk 4 enzyme was 0.11 µM; on cyclin E/CDK2 enzyme, greater than 50 µM; on cyclin B/CDK1 enzyme, greater than 50 µM; with BT474 it was 7.7 µM; in the test on HCT-116, 4 µM; with LoVo, 16.2 µM. Also, the IC50 in the test with MCF-7 is 36.8 µM.

For the compound `Nc1cnc(CN/C=C2\C(=O)NC(=O)c3ccc(I)cc32)cc1O` [Example 424, 4-{[(5-Amino-4-hydroxy-pyridin-2-ylmethyl)-amino]-methylene}-6-iodo-4H-isoquinoline-1,3-dione], the IC50 at cyclin D1/cdk 4 enzyme is 0.06 µM; at cyclin E/CDK2 enzyme, 1.5 µM; at cyclin B/CDK1 enzyme it was 6.3 µM; with BT474 it was 12.7 µM; in the test with HCT-116 it was greater than 50 µM; in the test with LoVo, greater than 50 µM. Also, the IC50 in the test with MCF-7 is greater than 50 µM.

For `C=CC(=O)Nc1cnc(CN/C=C2\C(=O)NC(=O)c3ccc(I)cc32)cc1O` [Example 428, N-(4-Hydroxy-6-{[(6-iodo-1,3-dioxo-2,3-dihydro-1H-isoquinolin-4-ylidenemethyl)-amino]-methyl}-pyridin-3-yl)-acrylamide], the IC50 is 0.13 µM at cyclin D1/cdk 4 enzyme; 0.7 µM on cyclin E/CDK2 enzyme; 6.4 µM at cyclin B/CDK1 enzyme; 0.07 µM in the test on BT474; 0.77 µM in the test on HCT-116; 0.65 µM in the test with LoVo. Moreover, in the test with MCF-7, the IC50 was found to be 1.67 µM.

Turning to `CN(C)C(=O)C1CCN(c2ccc(N/C=C3\C(=O)NC(=O)c4ccc(I)cc43)cc2)CC1` [Example 429, 1-(4-{[(Z)-(6-Iodo-1,3-dioxo-2,3-dihydroisoquinolin-4(1H)-ylidene)methyl]amino}phenyl)-N,N-dimethylpiperidine-4-carboxamide], the IC50 is 3 µM at cyclin D1/cdk 4 enzyme; greater than 50 µM on cyclin E/CDK2 enzyme; greater than 50 µM at cyclin B/CDK1 enzyme; 11.7 µM with BT474; 21 µM with HCT-116; 21.1 µM in the test on LoVo. Besides, the IC50 in the test on MCF-7 is greater than 50 µM.

For the compound `NC(=O)C1CCN(c2ccc(N/C=C3\C(=O)NC(=O)c4ccc(I)cc43)cc2)CC1` [Example 430, 1-(4-{[(Z)-(6-Iodo-1,3-dioxo-2,3-dihydroisoquinolin-4(1H)-ylidene)methyl]amino}phenyl)piperidine-4-carboxamide], the IC50 on cyclin D1/cdk 4 enzyme was 2.3 µM; at cyclin E/CDK2 enzyme, 15.4 µM; at cyclin B/CDK1 enzyme, 19.3 µM; in the test with BT474, 13.8 µM; in the test with HCT-116, 5.6 µM; in the test on LoVo it was 14.9 µM. In addition, the IC50 in the test on MCF-7 came out at 11.7 µM.

As to `O=C1NC(=O)c2ccc(I)cc2/C1=C/Nc1ccc(N2CCC(C(=O)O)CC2)cc1` [Example 431, 1-(4-{[(Z)-(6-Iodo-1,3-dioxo-2,3-dihydroisoquinolin-4(1H)-ylidene)methyl]amino}phenyl)piperidine-4-carboxylic acid], the IC50 at cyclin D1/cdk 4 enzyme worked out at 1.3 µM; on cyclin E/CDK2 enzyme, 4.1 µM; on cyclin B/CDK1 enzyme, 8.6 µM; with BT474, 6.4 µM; with HCT-116 it was 6.1 µM; in the test on LoVo, 5.8 µM. In the test on MCF-7, the IC50 turned out to be 8.8 µM.

Regarding `CON(C)C(=O)C1CCN(c2ccc(N/C=C3\C(=O)NC(=O)c4ccc(I)cc43)cc2)CC1` [Example 432, 1-(4-{[(Z)-(6-Iodo-1,3-dioxo-2,3-dihydroisoquinolin-4(1H)-ylidene)methyl]amino}phenyl)-N-methoxy-N-methylpiperidine-4-carboxamide], the IC50 on cyclin D1/cdk 4 enzyme is 6.5 µM; on cyclin E/CDK2 enzyme, greater than 50 µM; on cyclin B/CDK1 enzyme it was greater than 50 µM; in the test with BT474, 9.3 µM; with HCT-116 it was 11.1 µM; with LoVo it was 8.5 µM. Also, the IC50 in the test with MCF-7 amounted to 24.2 µM.

For the compound `O=C1NC(=O)c2ccc(I)cc2/C1=C/Nc1ccc(N2CCC(CO)CC2)cc1` [Example 434, (4Z)-4-[({4-[4-(Hydroxymethyl)piperidin-1-yl]phenyl}amino)methylene]-6-iodoisoquinoline-1,3(2H,4H)-dione], the IC50 is greater than 50 µM on cyclin D1/cdk 4 enzyme; greater than 50 µM at cyclin E/CDK2 enzyme; 40.6 µM on cyclin B/CDK1 enzyme; 8.1 µM in the test with BT474; 4.5 µM with HCT-116; 8.2 µM in the test on LoVo. The IC50 with MCF-7 was determined as 31.5 µM.

`COCC1CCN(c2ccc(N/C=C3\C(=O)NC(=O)c4ccc(I)cc43)cc2)CC1` [Example 435, (4Z)-6-Iodo-4-[({4-[4-(methoxymethyl)piperidin-1-yl]phenyl}amino)methylene]isoquinoline-1,3(2H,4H)-dione]: the concentration for half-maximal inhibition (IC50) at cyclin D1/cdk 4 enzyme is 4.6 µM; on cyclin E/CDK2 enzyme, 38.8 µM; at cyclin B/CDK1 enzyme it was greater than 50 µM; in the test with BT474, 8.5 µM; with HCT-116 it was 3.2 µM; in the test with LoVo, 5.2 µM. Further, the half-inhibitory concentration (IC50) with MCF-7 is 26 µM.

With `CCC1CCCN1Cc1ccc(N/C=C2\C(=O)NC(=O)c3ccc(I)cc32)cc1` (stereo not shown) [Example 436, 4-{[4-(2-Ethyl-pyrrolidin-1-ylmethyl)-phenylamino]-methylene}-6-iodo-4H-isoquinoline-1,3-dione], the IC50 at cyclin D1/cdk 4 enzyme is 0.26 µM; on cyclin E/CDK2 enzyme it was greater than 50 µM; at cyclin B/CDK1 enzyme, greater than 50 µM; with BT474, 0.4 µM; in the test with HCT-116 it was 2.5 µM; in the test on LoVo, 2.3 µM. Moreover, the IC50 with MCF-7 was determined as 1.5 µM.

Consider `O=C1NC(=O)c2ccc(-c3ccc(Cl)s3)cc2/C1=C/Nc1ccc(CN2CCC[C@H]2CO)cc1` [Example 441, 6-(5-Chloro-thiophen-2-yl)-4-{[4-(2-hydroxymethyl-pyrrolidin-1-ylmethyl)-phenylamino]-methylene}-4H-isoquinoline-1,3-dione], for which the IC50 on cyclin D1/cdk 4 enzyme is 0.14 µM; on cyclin E/CDK2 enzyme it was greater than 50 µM; at cyclin B/CDK1 enzyme it was greater than 50 µM; in the test on BT474 it was 3.2 µM; with HCT-116, 1.1 µM; in the test on LoVo, 2.9 µM. Besides, the 50% inhibitory concentration (IC50) in the test on MCF-7 turned out to be 2.3 µM.

Regarding `CN1CCN(c2ccc(N/C=C3\C(=O)NC(=O)c4ccc(I)cc43)c(F)n2)CC1` [Example 445, (4Z)-4-({[2-Fluoro-6-(4-methylpiperazin-1-yl)pyridin-3-yl]amino}methylene)-6-iodoisoquinoline-1,3(2H,4H)-dione], the IC50 was 0.32 µM on cyclin D1/cdk 4 enzyme; greater than 50 µM on cyclin E/CDK2 enzyme; greater than 50 µM on cyclin B/CDK1 enzyme; 2.8 µM in the test with BT474; 1.8 µM with HCT-116; 2.7 µM in the test with LoVo. Besides, the half-maximal inhibitory concentration (IC50) in the test with MCF-7 turned out to be 3.2 µM.

For `CN(C)CCNCC1CCN(c2ccc(N/C=C3\C(=O)NC(=O)c4ccc(I)cc43)cc2)CC1` [Example 446, (4Z)-4-[({4-[4-({[2-(Dimethylamino)ethyl]amino}methyl)piperidin-1-yl]phenyl}amino)methylene]-6-iodoisoquinoline-1,3(2H,4H)-dione], the half-inhibitory concentration (IC50) was 0.28 µM on cyclin D1/cdk 4 enzyme; greater than 50 µM on cyclin E/CDK2 enzyme; greater than 50 µM at cyclin B/CDK1 enzyme; 3.4 µM with BT474; 1.7 µM in the test with HCT-116; 2.9 µM in the test with LoVo. Also, the IC50 in the test with MCF-7 is 3 µM.

For `CN1CCN(c2ccc(N/C=C3\C(=O)NC(=O)c4ccc(I)cc43)c(O)n2)CC1` [Example 447, (4Z)-4-({[2-Hydroxy-6-(4-methylpiperazin-1-yl)pyridin-3-yl]amino}methylene)-6-iodoisoquinoline-1,3(2H,4H)-dione], the IC50 on cyclin D1/cdk 4 enzyme turned out to be 7.5 µM; on cyclin E/CDK2 enzyme it was 17.6 µM; at cyclin B/CDK1 enzyme, 12.9 µM; with BT474, 3 µM; in the test with HCT-116, 2 µM; in the test on LoVo it was 3.5 µM. Also, the IC50 in the test on MCF-7 is 3.6 µM.
